The target of the experiment is cholera toxin B subunit (Vibrio cholerae serotype O1, UniProt P01556). It is filed as binding.
cholera toxin B subunit, sequence (P01556 22-124 limits assumed): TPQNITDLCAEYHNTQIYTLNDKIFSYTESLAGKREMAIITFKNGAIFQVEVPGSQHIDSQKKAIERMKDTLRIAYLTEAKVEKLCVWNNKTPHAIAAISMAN

On to `COC(=O)CCCCCCCCOC1OC(COC2OC(CO)C(O)C(O)C2O)C(O)C(OC2OC(CO)C(O)C(O)C2O)C1O` (centres unmarked) [compound 3, αMan(1→3)[αMan(1→6)]βMan-OGr], for which the “break through relative to void volume” value is on record as “broke through in the void volume”.

On to `CC(=O)N[C@H]1[C@H](O[C@@H]2[C@H](O[C@]3(C(=O)O)C[C@H](O)[C@@H](NC(C)=O)[C@H]([C@H](O)[C@H](O)CO)O3)[C@@H](O)[C@H](O[C@H]3[C@H](O)[C@@H](O)[C@H](O)O[C@@H]3CO)O[C@@H]2CO)O[C@H](CO)[C@H](O)[C@@H]1O[C@@H]1O[C@H](CO)[C@H](O)[C@H](O)[C@H]1O` [compound 7, GM1 oligosaccharide], for which the break through volume (pH 6.9) was about 300 µL.

The record behind these values is US6723235B2, “Apparatus for screening compound libraries” (priority 1998, dated 2004).
